Source: patent publication US11839623B2, “Antiviral prodrugs and formulations thereof” (BOARD OF REGENTS OF THE UNIVERSITY OF NEBRASKA, priority 2018, dated 2023)

System: HIV-1ADA
Test: IC50 determination of ABC, MABC, PABC in MDM challenged with HIV-1ADA (RT activity)
Assay type: cell-based
Conditions: HIV-1ADA MOI 0.1, RT activity day 10, read-out: IC50 on reverse transcriptase
Experimental: Antiretroviral activities. Antiretroviral efficacy was determined by measurements of HIV reverse transcriptase (RT) activity. For IC50 determination, MDM were exposed to various concentrations (0.01-1000 nM) of ABC, MABC or PABC for 1 hour followed by challenge with HIV-1ADA at a multiplicity of infection (MOI) of 0.1 infectious particles per cell for 4 hours. Following viral challenge, cells were washed and incubated with the same concentration of drug used before infection for an additional 10 days in culture. Culture fluids were collected on day 10 for the measurement of RT activity. To assess antiretroviral efficacy, MDM were treated with 100 μM ABC, PABC or NPABC as described above for 8 hours. After treatment, cells were washed with PBS and cultured with fresh media, with half-media exchanges every other day. At 0, 4, 12 hours, and 1, 5, 10, 15 or 20 days after treatment, cells were challenged with HIV-1ADA at an MOI of 0.1 infectious particles per cell for 16 hours. After viral infection, the cells were cultured an additional 10 days with half-media exchanges every other day. Culture fluids were collected for measurement of RT activity. Cells were fixed with 4% PFA and expression of HIV-1 p24 antigen was determined by immunocytochemistry.

IC50: 227 nM
SMILES: CCCCCCCCCCCCCC(=O)OCC1C=CC(n2cnc3c(NC4CC4)nc(N)nc32)C1 (stereo not shown) [MABC]
